Source: ChEMBL document CHEMBL1201862, “PubChem BioAssay data set” (2004)
The source made the active and inactive calls.

Tests used:
Procathepsin L = Procathepsin L (Homo sapiens, UniProt P07711)
[1] = target: T1, Runt-related transcription factor 1/Core-binding factor subunit beta (Homo sapiens, UniProt Q01196+Q13951); test: Confirmation of compounds inhibiting the binding between the RUNX1 Runt domain and CBFb-SMMHC via a fluorescence resonance energy transfer (FRET) assay. [Related pubchem assays (depositor defined):AID1434, AID1438, AID1496, AID1550, AID1645]; type: protein assay
T1 sequence (Q01196 whole entry, the tested form may be a part): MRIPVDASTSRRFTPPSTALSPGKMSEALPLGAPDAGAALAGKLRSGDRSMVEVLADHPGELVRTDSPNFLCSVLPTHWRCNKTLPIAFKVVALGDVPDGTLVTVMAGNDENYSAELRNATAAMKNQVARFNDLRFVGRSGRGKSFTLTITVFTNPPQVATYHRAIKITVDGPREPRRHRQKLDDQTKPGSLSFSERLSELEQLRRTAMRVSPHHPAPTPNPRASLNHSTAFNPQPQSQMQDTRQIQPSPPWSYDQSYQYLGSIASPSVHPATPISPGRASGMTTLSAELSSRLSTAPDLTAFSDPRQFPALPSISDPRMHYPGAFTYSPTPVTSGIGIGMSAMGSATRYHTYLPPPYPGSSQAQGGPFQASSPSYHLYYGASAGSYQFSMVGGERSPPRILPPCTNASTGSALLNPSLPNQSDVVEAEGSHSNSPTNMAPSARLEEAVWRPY
T1 sequence (Q13951 whole entry, the tested form may be a part): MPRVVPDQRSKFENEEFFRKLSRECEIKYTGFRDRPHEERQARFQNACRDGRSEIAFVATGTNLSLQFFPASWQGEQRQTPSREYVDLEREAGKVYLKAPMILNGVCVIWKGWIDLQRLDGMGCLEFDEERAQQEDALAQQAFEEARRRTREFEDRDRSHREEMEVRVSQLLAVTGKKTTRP

[2] = target: T1, Runt-related transcription factor 1/Core-binding factor subunit beta; test: Confirmation of compounds inhibiting the binding between the RUNX1 Runt domain and CBFb-SMMHC via a time resolved fluorescence resonance energy transfer (TR-FRET) assay. [Related pubchem assays (depositor defined):AID1434, AID1438, AID1496, AID1560, AID1645]; type: protein assay
[3] = target: T1, Runt-related transcription factor 1/Core-binding factor subunit beta; test: disruptors of Runt domain/CBFb-SMMHC interaction – biochemical, FRET, Cerulean-Runt, Venus-CBFb-SMMHC, uHTS, […] (AID 1434); type: protein assay
[4] = target: T2, Mannose-6-phosphate isomerase (Homo sapiens, UniProt P34949); test: MPI inhibition at elevated mannose 6-phosphate – biochemical, fluorescence intensity, high mannose 6-phosphate, primary screen (AID 1220)
T2 sequence (P34949 whole entry): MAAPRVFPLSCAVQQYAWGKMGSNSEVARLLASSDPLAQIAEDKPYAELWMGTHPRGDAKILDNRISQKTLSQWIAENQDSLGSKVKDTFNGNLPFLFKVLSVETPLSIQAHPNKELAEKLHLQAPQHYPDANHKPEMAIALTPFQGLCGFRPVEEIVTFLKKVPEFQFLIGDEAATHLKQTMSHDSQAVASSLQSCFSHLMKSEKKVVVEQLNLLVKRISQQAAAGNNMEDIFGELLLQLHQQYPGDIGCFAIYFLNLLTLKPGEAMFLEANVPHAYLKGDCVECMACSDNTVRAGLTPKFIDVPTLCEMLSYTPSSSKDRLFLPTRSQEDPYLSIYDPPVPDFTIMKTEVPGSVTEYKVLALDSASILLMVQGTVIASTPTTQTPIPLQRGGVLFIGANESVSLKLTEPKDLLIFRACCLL

[5] = target: Eukaryotic translation initiation factor 4E (Mus musculus, UniProt P63073); test: blockers of eIF4G binding by eIF4E – biochemical, TR-FRET, dose response (AID 855); type: functional;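 also: potency for disrupting eIF4E binding to eIF4GI seen as loss of FRET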
Chain of Eukaryotic translation initiation factor 4E (P63073 whole entry): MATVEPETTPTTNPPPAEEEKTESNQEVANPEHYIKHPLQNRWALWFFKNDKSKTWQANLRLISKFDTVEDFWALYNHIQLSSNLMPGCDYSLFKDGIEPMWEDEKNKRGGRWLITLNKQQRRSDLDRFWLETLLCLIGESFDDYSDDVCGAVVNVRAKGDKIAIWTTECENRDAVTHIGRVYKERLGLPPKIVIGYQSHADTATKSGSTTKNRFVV

[6] = target: Glucose-6-phosphate 1-dehydrogenase (Homo sapiens, UniProt P11413); test: inhibition of Homo sapiens G6PD, dose series – biochemical, fluorescence, selectivity assay for P. falciparum G6PD inhibitor project, dose response (AID 504792); type: functional
Chain of Glucose-6-phosphate 1-dehydrogenase (P11413 whole entry, the tested form may be a part): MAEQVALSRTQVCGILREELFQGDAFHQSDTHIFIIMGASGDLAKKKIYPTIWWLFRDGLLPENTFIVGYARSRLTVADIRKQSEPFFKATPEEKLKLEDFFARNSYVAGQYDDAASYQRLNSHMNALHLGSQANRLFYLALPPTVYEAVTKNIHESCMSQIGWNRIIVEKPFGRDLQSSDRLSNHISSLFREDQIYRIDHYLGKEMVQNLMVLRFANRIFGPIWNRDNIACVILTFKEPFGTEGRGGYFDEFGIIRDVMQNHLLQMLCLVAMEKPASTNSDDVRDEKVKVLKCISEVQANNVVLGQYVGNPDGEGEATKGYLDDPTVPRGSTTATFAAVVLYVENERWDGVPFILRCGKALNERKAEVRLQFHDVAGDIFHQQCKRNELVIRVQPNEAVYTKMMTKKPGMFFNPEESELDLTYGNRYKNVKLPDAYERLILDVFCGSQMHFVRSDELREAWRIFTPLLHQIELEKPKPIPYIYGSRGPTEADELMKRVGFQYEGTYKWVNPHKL

[7] = target: T3, Polyadenylate-binding protein 1 (Homo sapiens, UniProt P11940); test: MLLE domain peptide-binding blockers, IC50 – biochemical, fluorescence polarization, FITC-PAM2 peptide, dose response (AID 602259); type: functional; settings: read-out: IC50_Mean
T3 sequence (P11940 whole entry, the tested form may be a part): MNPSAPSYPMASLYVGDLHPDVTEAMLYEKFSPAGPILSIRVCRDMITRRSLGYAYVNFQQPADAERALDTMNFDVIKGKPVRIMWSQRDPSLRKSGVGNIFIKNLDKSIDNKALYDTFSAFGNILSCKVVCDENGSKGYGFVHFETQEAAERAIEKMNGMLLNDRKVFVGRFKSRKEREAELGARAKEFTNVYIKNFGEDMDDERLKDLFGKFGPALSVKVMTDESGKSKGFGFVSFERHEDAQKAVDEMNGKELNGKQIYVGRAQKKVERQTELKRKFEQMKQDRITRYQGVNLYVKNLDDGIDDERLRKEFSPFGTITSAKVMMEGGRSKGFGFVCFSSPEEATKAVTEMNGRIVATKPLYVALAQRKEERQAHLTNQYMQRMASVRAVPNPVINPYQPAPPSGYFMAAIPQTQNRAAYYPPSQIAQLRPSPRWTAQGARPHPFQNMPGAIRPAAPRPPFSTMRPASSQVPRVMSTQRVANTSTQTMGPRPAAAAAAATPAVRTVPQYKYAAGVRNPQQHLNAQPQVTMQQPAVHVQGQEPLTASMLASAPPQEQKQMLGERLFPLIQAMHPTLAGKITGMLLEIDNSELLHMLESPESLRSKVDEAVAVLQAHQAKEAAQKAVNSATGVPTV

[8] = target: Induced myeloid leukemia cell differentiation protein Mcl-1 (Homo sapiens, UniProt Q07820); type: functional
Chain of Induced myeloid leukemia cell differentiation protein Mcl-1 (Q07820 whole entry): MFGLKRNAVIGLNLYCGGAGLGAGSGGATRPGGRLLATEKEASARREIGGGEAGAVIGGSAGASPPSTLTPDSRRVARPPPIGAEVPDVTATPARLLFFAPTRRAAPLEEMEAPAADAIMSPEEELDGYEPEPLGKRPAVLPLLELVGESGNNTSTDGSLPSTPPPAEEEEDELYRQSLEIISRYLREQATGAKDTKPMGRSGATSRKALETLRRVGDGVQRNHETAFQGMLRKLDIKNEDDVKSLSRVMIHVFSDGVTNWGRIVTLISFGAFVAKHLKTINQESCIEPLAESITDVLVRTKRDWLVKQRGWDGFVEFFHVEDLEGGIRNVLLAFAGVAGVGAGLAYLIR

Aspartyl aminopeptidase = Aspartyl aminopeptidase (Plasmodium falciparum 3D7, UniProt Q8I2J3)
[9] = viability loss in THP-1 monocytes – THP-1 cells, cytotoxicity control for Vif-APOBEC3G degradation inhibitor project, dose response (AID 1117359); type: functional; settings: THP-1
[10] = target: T3, Polyadenylate-binding protein 1; test: MLLE binding blockers, Cy5 peptide tracer – biochemical, fluorescence polarization, Cy5-PAM2 peptide, secondary, miRNA deadenylation inhibitor project, dose response (AID 602260); type: functional; settings: read-out: IC50_Mean
[11] = target: T4, G-protein coupled receptor 35 (Homo sapiens, UniProt Q9HC97); test: SAR analysis of Antagonists of the GPR35 Receptor using an Image-Based Assay - Set 6. [Related pubchem assays (depositor defined):AID2013, AID2026]; type: functional
T4 sequence (Q9HC97 whole entry): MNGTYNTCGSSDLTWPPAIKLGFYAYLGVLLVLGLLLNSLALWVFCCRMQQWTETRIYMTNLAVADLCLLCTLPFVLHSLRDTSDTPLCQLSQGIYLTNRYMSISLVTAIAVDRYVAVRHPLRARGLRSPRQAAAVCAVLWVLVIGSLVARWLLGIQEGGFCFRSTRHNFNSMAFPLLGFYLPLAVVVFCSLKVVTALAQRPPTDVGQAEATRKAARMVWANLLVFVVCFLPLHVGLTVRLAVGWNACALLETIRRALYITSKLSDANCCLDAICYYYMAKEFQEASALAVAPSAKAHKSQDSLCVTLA

[12] = target: G-protein coupled receptor 55 (Homo sapiens, UniProt Q9Y2T6); test: SAR Analysis of Selective Antagonists of GPR55 using an Image-Based Assay - Set 4. [Related pubchem assays (depositor defined):AID2013, AID2026]; type: functional;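 also: antagonism of response to 5 µM lysophosphatidylinositol agonist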
Chain of G-protein coupled receptor 55 (Q9Y2T6 whole entry): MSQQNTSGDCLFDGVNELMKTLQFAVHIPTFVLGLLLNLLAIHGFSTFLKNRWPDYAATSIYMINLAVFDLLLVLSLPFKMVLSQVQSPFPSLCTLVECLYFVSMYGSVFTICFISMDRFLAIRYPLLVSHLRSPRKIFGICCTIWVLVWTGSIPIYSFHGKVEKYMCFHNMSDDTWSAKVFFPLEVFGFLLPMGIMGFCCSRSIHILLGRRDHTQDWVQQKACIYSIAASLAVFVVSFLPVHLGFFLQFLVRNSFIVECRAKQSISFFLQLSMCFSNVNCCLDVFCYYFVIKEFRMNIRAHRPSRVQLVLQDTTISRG

[13] = target: T4, G-protein coupled receptor 35; test: SAR analysis of Agonists of the GPR35 Receptor using an Image-Based Assay - Set 4. [Related pubchem assays (depositor defined):AID2013, AID2026]; type: functional
Cannabinoid receptor 2 [14] = target: T5, Cannabinoid receptor 2 (Homo sapiens, UniProt P34972); test: SAR analysis of agonists of the Cannabinoid Receptor 2 using an Image-Based Assay - Set 3. [Related pubchem assays (depositor defined):AID2013, AID2026]; type: functional
T5 sequence (P34972 whole entry): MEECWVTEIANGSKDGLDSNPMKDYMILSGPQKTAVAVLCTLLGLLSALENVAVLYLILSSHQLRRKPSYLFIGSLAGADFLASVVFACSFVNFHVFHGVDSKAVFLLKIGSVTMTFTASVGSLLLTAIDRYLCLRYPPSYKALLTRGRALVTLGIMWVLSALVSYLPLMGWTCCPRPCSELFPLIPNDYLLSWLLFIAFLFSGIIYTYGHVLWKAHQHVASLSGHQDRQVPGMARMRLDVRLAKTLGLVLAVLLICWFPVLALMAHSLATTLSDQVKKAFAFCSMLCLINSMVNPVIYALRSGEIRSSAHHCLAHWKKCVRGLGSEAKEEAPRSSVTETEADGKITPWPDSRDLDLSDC

Cannabinoid receptor 2 [15] = target: T5, Cannabinoid receptor 2; test: SAR analysis of antagonists of the Cannabinoid Receptor 2 using an Image-Based Assay - Set 3. [Related pubchem assays (depositor defined):AID2013, AID2026]; type: functional
Cannabinoid receptor 1 [16] = target: T6, Cannabinoid receptor 1 (Homo sapiens, UniProt P21554); test: SAR analysis of agonists of the Cannabinoid Receptor 1 using an Image-Based Assay - Set 4. [Related pubchem assays (depositor defined):AID2013, AID2026]; type: functional
T6 sequence (P21554 whole entry): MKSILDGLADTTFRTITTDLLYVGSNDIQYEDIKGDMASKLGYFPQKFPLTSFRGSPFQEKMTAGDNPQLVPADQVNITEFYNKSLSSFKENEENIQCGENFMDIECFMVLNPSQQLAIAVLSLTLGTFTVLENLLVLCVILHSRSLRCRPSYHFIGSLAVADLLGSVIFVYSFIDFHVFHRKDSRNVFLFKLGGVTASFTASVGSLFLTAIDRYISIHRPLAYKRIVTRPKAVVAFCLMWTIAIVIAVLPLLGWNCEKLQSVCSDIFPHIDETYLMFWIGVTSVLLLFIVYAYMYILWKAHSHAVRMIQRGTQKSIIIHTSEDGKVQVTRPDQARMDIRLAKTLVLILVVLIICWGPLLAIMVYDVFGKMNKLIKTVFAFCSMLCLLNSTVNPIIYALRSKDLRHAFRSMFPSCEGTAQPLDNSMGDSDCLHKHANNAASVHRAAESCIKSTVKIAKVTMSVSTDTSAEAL

Cannabinoid receptor 1 [17] = target: T6, Cannabinoid receptor 1; test: SAR analysis of antagonists of the Cannabinoid Receptor 1 using an Image-Based Assay - Set 4. [Related pubchem assays (depositor defined):AID2013, AID2026]; type: functional
[18] = target: Voltage-dependent T-type calcium channel subunit alpha-1H (Homo sapiens, UniProt O95180); test: human CACNA1H calcium influx blockade – cell-based, synthetic library set 2, HEK293 HH8, Fluo-4, SAR follow-up (AID 493023); type: functional
[19] = A small molecule screen for inhibitors of the PhoP region in Salmonella typhi (5) using purified and synthesized compounds. [Related pubchem assays (depositor defined):AID1850, AID1864, AID1985, AID2252, AID2384, AID2612, AID2811, AID434995]; type: functional
[20] = target: T7, Ubiquitin-conjugating enzyme E2 N (Homo sapiens, UniProt P61088); type: functional
T7 sequence (P61088 whole entry): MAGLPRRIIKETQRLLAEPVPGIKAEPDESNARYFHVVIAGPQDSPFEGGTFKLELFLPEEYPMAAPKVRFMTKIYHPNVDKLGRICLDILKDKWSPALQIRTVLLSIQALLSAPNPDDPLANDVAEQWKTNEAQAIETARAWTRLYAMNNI

Bcl-2-related protein A1 = target: T8, Bcl-2-related protein A1 (Mus musculus, UniProt Q07440); type: functional;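 also: confirmatory dose–response counterscreen on Bfl-1, used to check hits from a UBC13 polyubiquitin inhibitor campaign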
T8 sequence (Q07440 whole entry): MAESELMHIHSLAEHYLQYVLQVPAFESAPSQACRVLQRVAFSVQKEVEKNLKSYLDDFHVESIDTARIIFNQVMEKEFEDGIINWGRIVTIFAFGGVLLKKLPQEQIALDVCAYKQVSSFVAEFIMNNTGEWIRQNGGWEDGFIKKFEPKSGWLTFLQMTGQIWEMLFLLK

[21] = target: T9, Apoptotic protease-activating factor 1 (Homo sapiens, UniProt O14727); type: functional
T9 sequence (O14727 whole entry): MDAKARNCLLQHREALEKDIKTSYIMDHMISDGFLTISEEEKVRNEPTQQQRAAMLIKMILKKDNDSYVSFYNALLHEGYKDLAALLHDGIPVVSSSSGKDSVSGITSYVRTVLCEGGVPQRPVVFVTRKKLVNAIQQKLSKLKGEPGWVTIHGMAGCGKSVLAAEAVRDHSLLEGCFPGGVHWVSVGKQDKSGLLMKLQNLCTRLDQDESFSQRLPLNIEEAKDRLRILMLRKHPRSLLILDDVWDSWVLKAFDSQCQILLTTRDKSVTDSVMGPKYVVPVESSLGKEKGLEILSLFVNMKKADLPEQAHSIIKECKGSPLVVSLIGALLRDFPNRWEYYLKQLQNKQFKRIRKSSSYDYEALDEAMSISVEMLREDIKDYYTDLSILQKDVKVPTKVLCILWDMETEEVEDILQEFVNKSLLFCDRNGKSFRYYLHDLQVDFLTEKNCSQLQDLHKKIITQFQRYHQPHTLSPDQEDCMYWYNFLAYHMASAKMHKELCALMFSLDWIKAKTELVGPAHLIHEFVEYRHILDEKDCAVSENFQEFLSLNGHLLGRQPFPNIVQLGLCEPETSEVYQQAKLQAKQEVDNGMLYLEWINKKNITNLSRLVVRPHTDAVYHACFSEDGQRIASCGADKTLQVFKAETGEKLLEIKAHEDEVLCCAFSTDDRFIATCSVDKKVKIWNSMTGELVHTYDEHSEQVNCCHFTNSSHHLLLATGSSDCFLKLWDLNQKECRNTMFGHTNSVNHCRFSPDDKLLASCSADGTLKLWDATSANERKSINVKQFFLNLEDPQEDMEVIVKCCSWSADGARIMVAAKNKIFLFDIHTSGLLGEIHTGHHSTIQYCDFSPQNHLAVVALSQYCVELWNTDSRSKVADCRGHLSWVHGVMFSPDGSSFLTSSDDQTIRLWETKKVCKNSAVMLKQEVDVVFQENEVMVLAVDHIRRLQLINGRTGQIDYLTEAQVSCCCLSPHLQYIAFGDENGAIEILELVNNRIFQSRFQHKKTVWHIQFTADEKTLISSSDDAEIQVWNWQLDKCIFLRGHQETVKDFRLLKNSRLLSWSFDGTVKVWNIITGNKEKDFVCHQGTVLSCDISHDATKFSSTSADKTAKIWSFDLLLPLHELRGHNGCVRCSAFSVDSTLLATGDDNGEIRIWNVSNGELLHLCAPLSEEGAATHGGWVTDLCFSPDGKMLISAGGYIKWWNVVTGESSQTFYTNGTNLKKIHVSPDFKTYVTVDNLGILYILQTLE

[22] = target: T7, Ubiquitin-conjugating enzyme E2 N; type: functional; remark: listed apart in the source
[23] = Luminescence Cell-Based Dose Response HTS to Identify Inhibitors of 5'UTR Stem-Loop Driven Prion Protein mRNA Translation in H4 Neuroglioblastoma Cells. [Related pubchem assays: 1827 (Project Summary), 1813 (Primary HTS)]; type: functional
[24] = tested on: Streptococcus sp. 'group A'; test: Streptococcus pyogenes SK(-)GAS viability under kanamycin – luminescence, BacTiterGlo, confirmation, counter-screen for streptokinase expression inhibitor project, dose response (AID 1900); type: functional, organism-based
[25] = luciferase reporter signal suppression in cells – H4 neuroglioma cells, luminescence, dose response (AID 1990); type: functional, cell-based
[26] = alpha-synuclein stem-loop luciferase translation blockers – H4 neuroglioma cells, luminescence, confirmation (AID 1988); type: functional, cell-based
Streptococcus = test: GAS UMAA2166 growth inhibition – luminescence, BacTiterGlo, counter-screen for streptokinase expression inhibitor project, dose response (AID 1915); type: functional, organism-based;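 also: potency for reduction of bacterial viability or growth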
Nonstructural protein 1 = Nonstructural protein 1 (Influenza A virus, UniProt Q194T2); type: functional, Influenza A virus (A/California/07/2009(H1N1))
Chain of Nonstructural protein 1 (Q194T2 whole entry): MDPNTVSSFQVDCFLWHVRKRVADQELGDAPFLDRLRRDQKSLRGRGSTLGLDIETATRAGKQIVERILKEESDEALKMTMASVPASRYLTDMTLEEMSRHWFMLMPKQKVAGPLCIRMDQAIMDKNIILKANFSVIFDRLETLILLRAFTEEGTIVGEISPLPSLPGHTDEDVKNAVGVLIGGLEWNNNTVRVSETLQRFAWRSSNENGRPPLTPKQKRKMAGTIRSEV

Chain of Procathepsin L (P07711 whole entry, the tested form may be a part): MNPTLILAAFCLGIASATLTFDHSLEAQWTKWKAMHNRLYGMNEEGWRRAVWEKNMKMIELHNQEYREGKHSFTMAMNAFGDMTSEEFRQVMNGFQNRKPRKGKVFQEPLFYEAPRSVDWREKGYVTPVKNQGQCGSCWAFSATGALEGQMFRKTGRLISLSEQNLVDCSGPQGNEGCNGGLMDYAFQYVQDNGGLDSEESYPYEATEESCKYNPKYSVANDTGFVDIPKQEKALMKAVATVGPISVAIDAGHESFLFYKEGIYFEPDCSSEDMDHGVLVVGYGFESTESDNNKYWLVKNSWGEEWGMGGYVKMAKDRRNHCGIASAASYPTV

Question: Which results are given for CN1CCc2cccc3c2[C@@H]1Cc1ccc(O)c(O)c1-3?
Answer: IC50 (Procathepsin L): > 59.6 µM (not active); IC50 [1]: 8.48 µM (active); IC50 [2]: 17.8 µM (active); IC50 [3]: 7.12 µM (active); IC50 [4]: 24.9 µM (active); IC50 [5]: > 64 µM (inactive); IC50 [6]: 38.4 µM (inactive); IC50 [7]: > 66 µM (inactive); IC50 [8]: < 0.4 µM (active); IC50 (Aspartyl aminopeptidase): 3.1 µM (active); CC50 [9]: 15 µM (active); IC50 [10]: > 66 µM (inactive)

Question: What does the source list for Cc1ccc2nc(-c3ccccn3)cc(C(=O)Nc3ccc(S(=O)(=O)N4CCOCC4)cc3)c2c1?
Answer: IC50 [11]: > 32 µM (inactive); IC50 [12]: > 32 µM (inactive); EC50 [13]: > 32 µM (inactive); EC50 (Cannabinoid receptor 2 [14]): > 32 µM (inactive); IC50 (Cannabinoid receptor 2 [15]): > 32 µM (inactive); EC50 (Cannabinoid receptor 1 [16]): > 32 µM (inactive); IC50 (Cannabinoid receptor 1 [17]): 5.37 µM (active)

Question: With O=C(NC[C@@H]1[C@H]2CN(Cc3ccccc3)C[C@@H]12)c1cc(Cl)cc(Cl)c1 as the compound, how does the EC50 [18] read?
Answer: 1.5 µM (active)

Question: Which IC50 [19] does the source give for O=C1C2=C(Nc3ccccc3SC2c2cccnc2)c2ccccc21 (stereo unspecified) here?
Answer: > 150 µM (active)

Question: Which IC50 [20] does the source give for N=C(N)N/N=C/c1ccc(OCc2ccccc2)c(OCc2ccccc2)c1 here?
Answer: 5.05 µM (active)

Question: And the IC50 (Bcl-2-related protein A1)?
Answer: 16 µM (active)

Question: And the IC50 [21]?
Answer: > 100 µM (inactive)

Question: What about the IC50 [22] of the same compound?
Answer: 6.15 µM (active)

Question: And the EC50 [23]?
Answer: > 120 µM (not active)

Question: And the EC50 [24]?
Answer: 5.75 µM (active)

Question: What about the EC50 [25] of the same compound?
Answer: 8.78 µM (active)

Question: And the EC50 [26]?
Answer: 19.9 µM (active)

Question: And the EC50 (Streptococcus)?
Answer: 8.86 µM (active)

Question: What about the IC50 (Nonstructural protein 1) of the same compound?
Answer: 49 µM (active)
